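In this assay, cells in 96-well plates receive the compound at five concentrations for 48 hours. Endpoints are linearly interpolated between the surrounding concentrations. Here, GI50 denotes the concentration required for 50% inhibition of growth.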 The source made the active and inactive calls. Cut-off read from the data, not from the text of the source: active = GI50 up to about 1.1 µM and inactive = higher.
Assays:
Assay in all cases: DTP human tumour cell line panel, 48 h
[1] = system: 786-0
[2] = system: A498
[3] = system: A549
[4] = system: ACHN
[5] = system: BT-549
[6] = system: CAKI-1
[7] = system: CCRF-CEM
[8] = system: COLO 205
[9] = system: DU-145
[10] = system: EKVX
[11] = system: HCC 2998
[12] = system: HCT-116
[13] = system: HCT-15
[14] = system: HOP-62
[15] = system: HT-29
[16] = system: IGROV-1
[17] = system: K562
[18] = system: KM12
[19] = system: LOX IMVI
[20] = system: M14
[21] = system: MCF7
[22] = system: MDA-MB-231
[23] = system: MDA-MB-435
[24] = system: MDA-N
[25] = system: MOLT-4
[26] = system: Malme-3M
[27] = system: NCI-H226
[28] = system: NCI-H23
[29] = system: NCI-H460
[30] = system: NCI-H522
[31] = system: NCI/ADR-RES
[32] = system: OVCAR-3
[33] = system: OVCAR-4
[34] = system: OVCAR-5
[35] = system: OVCAR-8
[36] = system: PC-3
[37] = system: RPMI-8226
[38] = system: RXF 393
[39] = system: SF-268
[40] = system: SF-295
[41] = system: SF-539
[42] = system: SK-MEL-28
[43] = system: SK-MEL-2
[44] = system: SK-MEL-5
[45] = system: SK-OV-3
[46] = system: SN12C
[47] = system: SNB-19
[48] = system: SNB-75
[49] = system: SR
[50] = system: SW-620
[51] = system: T47D
[52] = system: TK-10
[53] = system: U-251
[54] = system: UACC-257
[55] = system: UACC-62
[56] = system: UO-31
[57] = system: HL-60
[58] = system: HOP-92
[59] = system: Hs-578T

Measured: GI50

CC(=O)O[C@H]1CC[C@@]2(C)C(=CC[C@@H]3[C@@H]2CC[C@]2(C)NC(=O)/C(=C\c4ccccc4)C[C@@H]32)C1
inactive: [1] 17.6 µM | [2] 13.8 µM | [3] 17.1 µM | [4] 21.9 µM | [5] 18.6 µM | [6] 25.9 µM | [7] 16.5 µM | [8] 17.1 µM | [9] 15.9 µM | [10] 14.9 µM | [11] 21.3 µM | [12] 15.6 µM | [14] 13.2 µM | [15] 15 µM | [16] 21.4 µM | [17] > 100 µM | [18] 18.1 µM | [19] 17 µM | [20] 16.1 µM | [21] 14.9 µM | [22] 22.6 µM | [23] 14.8 µM | [24] 19.6 µM | [25] > 100 µM | [26] 18 µM | [27] 18.3 µM | [28] 15.9 µM | [29] 26.9 µM | [30] 15.6 µM | [31] 24.5 µM | [32] 12.9 µM | [33] 16.5 µM | [34] 17.7 µM | [35] 20.5 µM | [36] 18.4 µM | [37] 12.3 µM | [38] 13 µM | [39] 19.6 µM | [40] 17.8 µM | [41] 16.1 µM | [42] 16.8 µM | [43] 20.4 µM | [44] 10.8 µM | [45] 20.9 µM | [46] 18.7 µM | [47] 16.1 µM | [48] 19.1 µM | [49] 55 µM | [50] 20.2 µM | [51] 13.5 µM | [52] 29.9 µM | [53] 18.1 µM | [54] 17.5 µM | [55] 14 µM | [56] 15.7 µM
18.6 µM: [13]

COc1ccccc1Cn1[nH]c(=O)c2cc([N+](=O)[O-])ccc21
> 100 µM: [13]
inactive: [1] 42 µM | [2] 26.5 µM | [3] 93.1 µM | [4] 75 µM | [6] > 100 µM | [7] > 100 µM | [8] > 100 µM | [9] > 100 µM | [10] > 100 µM | [11] 65.9 µM | [12] > 100 µM | [57] 86.5 µM | [14] > 100 µM | [58] 24.7 µM | [15] > 100 µM | [59] 23.7 µM | [16] 43.5 µM | [17] 51.6 µM | [18] > 100 µM | [19] > 100 µM | [20] > 100 µM | [22] 64.4 µM | [23] 43.9 µM | [24] 47.8 µM | [25] > 100 µM | [26] > 100 µM | [27] > 100 µM | [28] > 100 µM | [29] > 100 µM | [30] > 100 µM | [31] 75.5 µM | [32] 27.9 µM | [33] > 100 µM | [34] > 100 µM | [35] > 100 µM | [37] > 100 µM | [38] 25.8 µM | [39] 48.5 µM | [41] > 100 µM | [42] > 100 µM | [43] 24.4 µM | [44] > 100 µM | [46] > 100 µM | [47] 61.2 µM | [48] 25.8 µM | [49] > 100 µM | [50] 84.9 µM | [52] > 100 µM | [54] > 100 µM | [55] 76 µM | [56] > 100 µM

Source: ChEMBL document CHEMBL1201862, “PubChem BioAssay data set” (2004)
